From patent US20010049357A1, “Use of Hsp27 as an anti-inflammatory agent” (priority 1999, published 2001) come the findings set out here.

The subject of assay [1] is human MØ. Description: IL-10 production by human MØ (ELISA of culture supernates). It counts as cell-based. (In general: An ELISA detects its analyte on a solid surface through an enzyme-linked reagent.)
The subject of assay [2] is human MØ. Description: TNFα production by human MØ (ELISA of culture supernates). It counts as cell-based.
For the next assay, the system named is MØ. Description: MØ conversion (differentiation) into immature dendritic cells by IL-4 plus GM-CSF. The assay is classed as cell-based. As to conditions: Hsp27 added to MØ cultures at the initiation of conversion. The source says: In a preferred method for obtaining dendritic cells in vitro, isolated MØ are are first stimulated to undergo conversion (differentiation) into immature dendritic cells, and then stimulated to mature into fully active or competent dendritic cells. Conversion can be stimulated or promoted in vitro by any effective treatment. For example, conversion can be promoted by treating the MØ with an effective amount of IL-4 and an effective amount of GM-CSF, in accordance with conventional techniques. Typically, the IL-4 and GM-CSF treatment is for approximately 3-4 days. One indication of conversion is expression of CD1a. For guidance concerning in vitro conversion of MØ to immature dendritic cells, see, e.g., Chapius et al., 1997, Eur. J. Immunol. 27:431-441.
(§1) Hsp27 added to MØ cultures at the initiation of conversion inhibited differentiation of MØ to dendritic cells mediated or promoted by the combination of IL-4 plus GM-CSF.

The subject of the next assay is p38 MAPK. Description: Immunoblot for activation (phosphorylation) of p38 MAPK in human MØ. It counts as cell-based. As to conditions: after addition of Hsp 27 2 μg/ml. How it is done: (§2) Monocytes (1.5×10^6 cells) were cultured in serum free medium for 2 hrs and then stimulated with Hsp 27 (2 μg/ml) for different time periods (1 min to 3 hrs). Western blot analysis was performed, essentially as described previously (29). Briefly, cells were lysed using a buffer consisting of 1% Nonidet P-40, 50 mM HEPES (pH 7.2), 100 mM NaCl, 2 mM EDTA, 1 mM pyrophosphate, 2 mM Na3VO4, 10 mM NaF, 1 mM PMSF, 10 μg/ml leupeptin and 10 μg/ml aprotinin. Postnuclear supernates were harvested after centrifugation of the lysate for 15 min at 14,000 g at 4° C. Equal amounts of postnuclear lysates were boiled for 5 min in the presence of SDS sample buffer (reducing) and subjected to SDS-12% PAGE and then transferred to nitrocellulose membrane (Millipore Corp, Bedford, Mass.) in transfer buffer [25 mM Tris, 192 mM glycine, pH 8.3, 20% (V/V) methanol]. Membranes were first rinsed in TTBS (TBS with 0.1% Tween 20) and then blocked for 1 hr at room temperature in TTBS-5% W/V nonfat dry milk. The membrane was then incubated overnight at 4° C. with antiphospho-p38 MAPK antibody (rabbit polyclonal; New England Biolab) (1:1000 dilution in TTBS-1% BSA). Antibody-antigen complexes were detected with the aid of HRP-conjugated anti-rabbit secondary antibody (1:2000 dilution) (New England Biolab) followed by detection of the bands with ECL reagent (NEN Life Science Products). […]
(§3) To assess the activation (phosphorylation) of three different mitogen-activated protein kinases (MAPK)—p38, p44/42 (Erk 1/2) and p46/54 (SAPK/JNK-1/2) after Hsp 27 addition, we stimulated human MØ at different time points and measured activated p38, Erk 1/2 and JNK 1/2 using the respective antibodies against the phosphorylated forms of the MAPKs. […]
(In western blotting, separated proteins are transferred to a membrane and probed.)

For assay [3], the system named is IL-10 mRNA in human monocytes. Description: RNAse protection assay of IL-10 mRNA in human monocytes. The assay is classed as cell-based.
For another assay, the system named is Normal control monocytes. It counts as cell-based, human.
A further assay concerns MAPKAPKinase-2. The assay is classed as cell-based, human.
A further assay deals with immature dendritic cells. Description: Maturation of immature dendritic cells (CD83 expression). The assay is classed as cell-based. The procedure: Preferably, the MØ are not brought into contact with Hsp27 before their conversion into immature dendritic cells, because Hsp27 inhibits the conversion. After conversion, however, Hsp27 acts as a potent promoter of maturation by the immature dendritic cells. […] Dendritic cell maturation is detectable as early as 24 hours after initiation of Hsp27 treatment. Preferably, however, Hsp27-induced maturation is allowed to proceed for 48 to 72 hours. One useful indication of dendritic cell maturation is expression of CD83.
as §1

In another assay the test system is p46/54 (SAPK/JNK-1/2). Description: Immunoblot for activation (phosphorylation) of SAPK/JNK in human MØ. The assay is classed as cell-based. The procedure: as §2, §3
In a further assay the test system is p44/42 (Erk 1/2). Description: Immunoblot for activation (phosphorylation) of Erk 1/2 in human MØ. It counts as cell-based. As to conditions: after addition of Hsp 27 2 μg/ml. The procedure: Monocytes (1.5×10^6 cells) were cultured in serum free medium for 2 hrs and then stimulated with Hsp 27 (2 μg/ml) for different time periods (1 min to 3 hrs). Western blot analysis was performed, essentially as described previously (29). Briefly, cells were lysed using a buffer consisting of 1% Nonidet P-40, 50 mM HEPES (pH 7.2), 100 mM NaCl, 2 mM EDTA, 1 mM pyrophosphate, 2 mM Na3VO4, 10 mM NaF, 1 mM PMSF, 10 μg/ml leupeptin and 10 μg/ml aprotinin. Postnuclear supernates were harvested after centrifugation of the lysate for 15 min at 14,000 g at 4° C. […] Antibody-antigen complexes were detected with the aid of HRP-conjugated anti-rabbit secondary antibody (1:2000 dilution) (New England Biolab) followed by detection of the bands with ECL reagent (NEN Life Science Products). […]
as §3

Where [4] appears, read: after addition of Hsp 27 2 μg/ml.

Where two headings read alike, the source gives them in different places. Bounds are passed on as bounds.

`COc1cccc(-c2cc(=O)c3ccccc3o2)c1N` [PD98059, reference compound]: the “effect on Hsp 27 induced MØ IL-10 production” value in the assay with human MØ [1] is “did not have any inhibitory effect”. Moreover, the “TNFα induced by Hsp 27 blocked” value with human MØ [2] (inhibitor 10 μM for 2 hrs before Hsp 27 2 μg/ml) is recorded as 68%.
For the molecule `C[S+]([O-])c1ccc(-c2nc(-c3ccncc3)c(-c3ccc(F)cc3)[nH]2)cc1` (centres unmarked) [SB203580, reference compound], the “inhibition of Hsp 27 induced MØ IL-10 production” value with human MØ [1] is given as “approximately 80%”. Also, the “TNFα induced by Hsp 27 blocked” value in the assay with human MØ [2] was determined as 90%.
As for TNFα, the “increase in IL-10 levels” value in the assay on human MØ [1] (exogenous addition of 100 U/ml TNFα) was found to be 1.5 fold.
In the case of heat shock protein-27 [Hsp 27], the “effect on differentiation of MØ to dendritic cells promoted by IL-4 plus GM-CSF” value in the assay with MØ is reported as “inhibited”. Further, in the assay on p38 MAPK, the “persistence of p38 MAPK activation” value was “up to 180 min”, the “time at which p38 MAPK phosphorylation was clearly increased” value was determined as 20 min and the “time of maximal stimulation of p38 MAPK” value is recorded as 40 min. The “IL-10 mRNA levels relative to control MDP+SEB induced levels” value in [3] is on record as 3.2 fold. Further, in assay [3] (Hsp 27 2 μg/ml, 8-9 hrs), the “increase in IL-10 mRNA levels compared to only adherence stimulated MØ” value was approximately 7.2 fold. Further, in the assay on Normal control monocytes, the “IL-12(pg/10^6 cells/ml) x ± SEM” value came out at 3428 ± 1102 pg/10^6 cells/ml, the “increase in IL-12 as compared to SEB+MDP” value is given as “approximately 3 fold” and the “increase in IL-12 relative to SEB+MDP” value is reported as 2.5-3.5. Further, the “MAPKAPKinase-2 activity versus adherence stimulated untreated MØ lysate” value in the assay on MAPKAPKinase-2 is “significantly increased”. In the assay with human MØ [1], the “IL-10(pg/10^6 cells/ml) x ± SEM” value is 5267 ± 610 pg/10^6 cells/ml, the “MØ IL-10 production” value is reported as “approximately 3400 pg/ml”, the “increase in IL-10 as compared to SEB+MDP” value is listed as “approximately 3 fold” and the “increase in IL-10 relative to SEB+MDP” value is reported as 2.5-3.5. Moreover, the “optimum concentration for Hsp 27 induced MØ IL-10 production” value in the assay with human MØ [1] (dose-dependent, FIG. 1B) lay in the range of 1 to 5 µg/mL. For the same molecule, in the assay on immature dendritic cells (Hsp27 added after initial differentiation into DC (day 4 of induction)), the “effect on maturation of immature DC to mature antigen-presenting DC” value was “strongly promoted”. The “time at which dendritic cell maturation is detectable” value with immature dendritic cells (after initiation of Hsp27 treatment) was not below 24 h. In addition, in the assay with human MØ [2] (16-18 hrs), the “MØ TNFα production” value was determined as 483 ± 74 pg/mL. For the same molecule, in the assay on p46/54 (SAPK/JNK-1/2) (setting [4]), the “time at which JNK 1/2 phosphorylation was clearly increased” value is 20 min and the “time of maximal stimulation of JNK 1/2” value is 40 min. In the assay with p46/54 (SAPK/JNK-1/2) (compared to activation of p38 and Erk), the “induction of P-p54 JNK” value is listed as “only minimal”. In addition, in the assay on p44/42 (Erk 1/2), the “time at which Erk 1/2 phosphorylation was clearly increased” value is on record as 20 min and the “time of maximal stimulation of Erk 1/2” value was found to be 40 min.
Consider polymyxin B [reference compound], for which, in the assay with human MØ [1] (polymyxin B 200 U/ml together with Hsp 27 2 μg/ml), the “effect on Hsp 27 induced MØ IL-10 production” value is recorded as “could not inhibit”.
